Measured values from US20240398757A1 (COCRYSTAL PHARMA, INC., priority 2022, published 2024).

biological target: T1, SARS2 protease (Severe acute respiratory syndrome coronavirus 2, UniProt P0DTD1); assay: SARS-CoV-2 protease inhibition assay (SARS2 FRET protease assay); assay type: biochemical; conditions: IC50 (μM), SARS2 protease 30 nM, peptide substrate 1.3 μM, 120 minutes at 37° C., compounds 20 μM to 0.075 nM
T1 construct: SARS2 protease was added to a final concentration of 30 nM

Compared with `CCCC[C@H](NC(=O)O[C@@H](c1cccnc1)C(F)(F)c1cccc(Cl)c1)C(=O)N[C@H](C=O)C[C@@H]1CCNC1=O` [Compound A267, (S)-2-(3-chlorophenyl)-2,2-difluoro-1-(pyridin-3-yl)ethyl ((S)-1-oxo-1-(((S)-1-oxo-3-((S)-2-oxopyrrolidin-3-yl)propan-2-yl)amino)hexan-2-yl)carbamate], `CCCC[C@H](NC(=O)O[C@H](c1cccnc1)C(F)(F)c1cccc(Cl)c1)C(=O)N[C@H](C=O)C[C@@H]1CCNC1=O` [Compound A268, (R)-2-(3-chlorophenyl)-2,2-difluoro-1-(pyridin-3-yl)ethyl ((S)-1-oxo-1-(((S)-1-oxo-3-((S)-2-oxopyrrolidin-3-yl)propan-2-yl)amino)hexan-2-yl)carbamate] is 110-fold lower in IC50: 9 nM for the first, 0.08 nM for the second. The second is the more potent here.

First: CCCC[C@H](NC(=O)OC(c1ccccc1)C(F)(F)c1cccc(Cl)c1)C(=O)N[C@@H](C[C@@H]1CCNC1=O)C(=O)c1nc2ccccc2o1 (stereo partly drawn) [Compound A269, 2-(3-chlorophenyl)-2,2-difluoro-1-phenylethyl ((S)-1-(((S)-1-(benzo[d]oxazol-2-yl)-1-oxo-3-((S)-2-oxopyrrolidin-3-yl)propan-2-yl)amino)-1-oxohexan-2-yl)carbamate]
Second: O=C(N[C@@H](CC1CCCCC1)C(=O)N[C@@H](C[C@@H]1CCNC1=O)C(=O)c1nc2ccccc2o1)OC(c1ccccc1)C(F)(F)c1cccc(Cl)c1 (stereo partly drawn) [Compound A278, 2-(3-chlorophenyl)-2,2-difluoro-1-phenylethyl ((S)-1-(((S)-1-(benzo[d]oxazol-2-yl)-1-oxo-3-((S)-2-oxopyrrolidin-3-yl)propan-2-yl)amino)-3-cyclohexyl-1-oxopropan-2-yl)carbamate]
The IC50 of the first is 1.7-fold higher: 418 nM for the first, 249 nM for the second.

Compared with `CCCC[C@H](NC(=O)OC(c1ccccc1)C(F)(F)c1cccc(Cl)c1)C(=O)N[C@@H](C[C@@H]1CCNC1=O)C(=O)C(=O)NCCN(CC)CC` (stereo partly shown) [Compound A271], `CC(C)C[C@H](NC(=O)O[C@@H](c1ccccc1)C(F)(F)c1cccc(C(C)C)c1)C(=O)N[C@H](C=O)C[C@@H]1CCNC1=O` [Compound A275, (S)-2,2-difluoro-2-(3-isopropylphenyl)-1-phenylethyl ((S)-4-methyl-1-oxo-1-(((S)-1-oxo-3-((S)-2-oxopyrrolidin-3-yl)propan-2-yl)amino)pentan-2-yl)carbamate] is 940-fold lower in IC50: 936 nM for the first, 1 nM for the second. The second is the more potent here.

Compared with `CC(C)C[C@H](NC(=O)O[C@@H](C(C)C)C(F)(F)c1cccc(-c2ccccc2)c1)C(=O)N[C@H](C=O)C[C@@H]1CCNC1=O` [Compound A272, (S)-1-([1,1′-biphenyl]-3-yl)-1,1-difluoro-3-methylbutan-2-yl ((S)-4-methyl-1-oxo-1-(((S)-1-oxo-3-((S)-2-oxopyrrolidin-3-yl)propan-2-yl)amino)pentan-2-yl)carbamate], `CC(C)(c1cccc(Cl)c1)C(OC(=O)N[C@@H](Cc1ccc(Cl)c(Cl)c1)C(=O)N[C@H](C=O)C[C@@H]1CCNC1=O)c1ccccc1` (stereo partly drawn) [Compound A279, 2-(3-chlorophenyl)-2-methyl-1-phenylpropyl ((S)-3-(3,4-dichlorophenyl)-1-oxo-1-(((S)-1-oxo-3-((S)-2-oxopyrrolidin-3-yl)propan-2-yl)amino)propan-2-yl)carbamate] is 420-fold higher in IC50: 1 nM for the first, 423 nM for the second.

Compared with `CCNC(=O)C(=O)[C@H](C[C@@H]1CCNC1=O)NC(=O)[C@H](Cc1ccccc1)NC(=O)OCCCc1ccccc1` [Compound A276, 3-Phenylpropyl ((S)-1-(((S)-4-(ethylamino)-3,4-dioxo-1-((S)-2-oxopyrrolidin-3-yl)butan-2-yl)amino)-1-oxo-3-phenylpropan-2-yl) carbamate], `O=C[C@H](C[C@@H]1CCNC1=O)NC(=O)[C@H](Cc1ccccc1)NC(=O)OCCCc1ccccc1` [Compound A277, 3-Phenylpropyl ((S)-1-oxo-1-(((S)-1-oxo-3-((S)-2-oxopyrrolidin-3-yl)propan-2-yl)amino)-3-phenylpropan-2-yl) carbamate] is 19-fold lower in IC50: 4150 nM for the first, 218 nM for the second. The second is the more potent here.
